Tests used:
[1] = target: T1, STK17A (Homo sapiens, UniProt Q9UEE5); experiment: biochemical; set-up: LanthaScreen kinase activity assay (Thermo Fisher), dose-dependent inhibition by C-604; conditions: read-out: IC50 (C-604)
T1 sequence (Q9UEE5 1-414): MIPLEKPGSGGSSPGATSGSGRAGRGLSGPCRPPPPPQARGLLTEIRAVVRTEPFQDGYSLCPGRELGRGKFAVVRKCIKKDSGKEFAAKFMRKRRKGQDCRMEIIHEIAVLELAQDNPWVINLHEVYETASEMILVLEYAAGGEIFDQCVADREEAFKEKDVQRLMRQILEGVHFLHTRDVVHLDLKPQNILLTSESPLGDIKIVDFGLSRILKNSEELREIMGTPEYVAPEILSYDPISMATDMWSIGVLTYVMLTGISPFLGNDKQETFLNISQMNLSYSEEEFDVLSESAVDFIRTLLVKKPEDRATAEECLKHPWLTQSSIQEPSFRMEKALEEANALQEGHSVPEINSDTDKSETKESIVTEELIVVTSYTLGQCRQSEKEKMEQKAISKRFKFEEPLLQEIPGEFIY
Procedure: To identify potential C-604 off-targets, we utilised a commercially available off-target screening service (Thermo Fisher Scientific) to assess the impact of C-604 on the in vitro activity of 100 human kinases (Supplementary Fig. 8a). Out of 100 tested targets, C-604 (1 µM) inhibited GWL (inhibition 95%) and an additional 10 kinases (inhibition ≥ 80%). […] The in vitro off-target effects of compound C-604 were determined by assessing its inhibitory potential in a panel of 100 human kinases using the LanthaScreen Kinase Activity Assay (Thermo Fisher Scientific).

[2] = physchem; set-up: aqueous solubility at pH 7.0; conditions: pH 7.0; buffer pH 7.0; aqueous buffer pH 7.0
Text: We selected compound 1 as the lead exemplar of cluster 3 and leveraged it as a foundation for subsequent drug development (Fig. 1a). Structure-activity relationship studies and pharmacokinetic profiling produced several derivative molecules, of which compound 21 provided the best combination of outstanding inhibitory potential, low clearance in mouse microsomes and acceptable solubility (Fig. 1a–c and Supplementary Tables 1–4). […] This assessment was supported by structural modelling of the interaction between compound 21 and the active site of GWL (Fig. 1d). In further support of its GWL-targeting properties, compound 21 diminished the phosphorylation of the canonical GWL substrate ENSA(S67) in Xenopus laevis cytostatic factor (CSF) egg extract (Supplementary Fig. 2). Having satisfied the criteria of prospective GWL inhibitor, the racemic compound 21 was registered as UOS-00054604 and, for the remainder of the manuscript, is referred to as C-604.

IC50 [1]: 154 nM
solubility [2]: 72 µM
SMILES: CNC(=O)c1c[nH]c2ncc(-c3ccc(OCCN4CCC(c5ccccc5)C4)cc3)nc12 (racemic) [compound 21, C-604]

Source: publication PMC12391391, “The balance between B55α and Greatwall expression levels predicts sensitivity to Greatwall inhibition in cancer cells” (Nature Communications, 2025)
